Source: US6541467B1, “Thrombin inhibitors having a lactam at P3” (Corvas International, Inc., priority 2000, dated 2003)

Assays:
Assay type in all cases: biochemical
[1] = target: T1, bovine pancreatic trypsin (Bos taurus, UniProt P00760); assay: Trypsin chromogenic enzyme assay
T1 sequence (P00760 24-246): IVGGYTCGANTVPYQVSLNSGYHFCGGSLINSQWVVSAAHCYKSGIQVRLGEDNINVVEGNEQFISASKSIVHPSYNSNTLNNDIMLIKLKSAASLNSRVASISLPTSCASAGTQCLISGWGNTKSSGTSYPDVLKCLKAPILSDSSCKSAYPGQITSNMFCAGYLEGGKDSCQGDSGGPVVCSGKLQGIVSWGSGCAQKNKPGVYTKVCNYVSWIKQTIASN
Experimental: (§1) The ability of compounds of the present invention to act as a selective inhibitor of thrombin activity was assessed by determining the concentration of test-compound which inhibited the activity of this enzyme by 50%, (IC50), and comparing this value to that determined for all or some of the following related serine proteases: recombinant tissue plasminogen activator (rt-PA), plasmin, activated protein C, chymotrypsin, factor Xa and trypsin.
(§2) The buffer used for all assays was HBSA (10 mM HEPES, pH 7.5, 150 mM sodium chloride, 0.1% bovine serum albumin).
(§3) The assay for IC50 determinations was conducted by combining in appropriate wells of a Corning microtiter plate, 50 microliters of HBSA, 50 microliters of the test compound at a specified concentration (covering a broad concentration range) diluted in HBSA (or HBSA alone for V0 (uninhibited velocity) measurement), and 50 microliters of the enzyme diluted in HBSA. Following a 30 minute incubation at ambient temperature, 50 microliters of the substrate at the concentrations specified below were added to the wells, yielding a final total volume of 200 microliters. The initial velocity of chromogenic substrate hydrolysis was measured by the change in absorbance at 405 nm using a Thermo Max® Kinetic Microplate Reader over a 5 minute period in which less than 5% of the added substrate was utilized. The concentration of added inhibitor which caused a 50% decrease in the initial rate of hydrolysis was defined as the IC50 value.
Trypsin catalytic activity was determined using the chromogenic substrate, S-2222 (benzoyl-L-isoleucine-L-glutamic acid-[gamma-methyl ester]-L-arginine-p-nitroanilide), which was obtained from DiaPharma Group. […] Purified (3×-crystallized; TRL3) bovine pancreatic trypsin was obtained from Worthington Biochemical Corp. The enzyme was reconstituted in deionized water and diluted into HBSA prior to assay in which the final concentration was 0.5 nM.

human α-thrombin = target: T2, human α-thrombin (Homo sapiens, UniProt P00734); assay: Thrombin (fIIa) chromogenic enzyme assay; settings: for IC50: 0 min
T2 construct: Purified human α-thrombin; purchased Enzyme Research Laboratories, Inc
Experimental: For screening compounds using these assays, the compounds of the present invention are dissolved in buffer to give solutions containing concentrations such that assay concentrations range from 0 to 100 micromolar. In the assays for thrombin, plasmin, t-PA, aPC, chymotrypsin, and trypsin, a chromogenic synthetic substrate is added to a solution containing test compound and the enzyme of interest and the residual catalytic activity of that enzyme is determined spectrophometrically. The IC50 of a compound of the present invention is determined from the rate of substrate turnover caused by the specific enzyme being measured. IC50 is the concentration of test compound which gives 50% inhibition of the rate of substrate turnover. Likewise, the Ki of a compound of the present invention is determined from the rate of substrate turnover caused by the specific enzyme being measured at various […] concentrations. Example A provides exemplars of in vitro assays used to select the compounds of the present invention.
as §1, §2
as §3, with “Following a 30 minute incubation at ambient temperature, 50 microliters of the substrate at the concentrations specified below were added to the wells, yielding a final total volume of 200 microliters.” left out
Enzyme activity was determined using the chromogenic substrate, Pefachrome t-PA (CH3SO2-D-hexahydrotyrosine-glycyl-L-Arginine-p-nitroaniline, obtained from Pentapharm Ltd.). The substrate was reconstituted in deionized water prior to use. Purified human α-thrombin was obtained from Enzyme Research Laboratories, Inc. The buffer used for all assays was HBSA (10 mM HEPES, pH 7.5, 150 mM sodium chloride, 0.1% bovine serum albumin).
The initial velocity of Pefachrome t-PA hydrolysis was measured by the change in absorbance at 405 nm using a Thermo Max® Kinetic Microplate Reader over a 5 minute period in which less than 5% of the added substrate was utilized. The concentration of:added inhibitor which caused a 50% decrease in the initial rate of hydrolysis was defined as the IC50 value.

Factor Xa = target: T3, Factor Xa (Homo sapiens, UniProt P00742); assay: Factor Xa chromogenic enzyme assay; settings: read-out: fXa IC50
T3 construct: purchased Enzyme Research Laboratories, Inc. (South Bend, Ind.)
T3 sequence (P00742 235-488 limits assumed): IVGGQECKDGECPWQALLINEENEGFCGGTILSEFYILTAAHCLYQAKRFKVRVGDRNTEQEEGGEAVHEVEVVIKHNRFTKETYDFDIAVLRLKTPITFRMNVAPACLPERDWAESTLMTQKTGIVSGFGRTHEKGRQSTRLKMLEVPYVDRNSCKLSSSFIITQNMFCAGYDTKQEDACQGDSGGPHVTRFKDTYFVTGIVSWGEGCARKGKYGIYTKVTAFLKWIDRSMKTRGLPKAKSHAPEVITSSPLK
T3 sequence (P00742 41-179 partner limits assumed): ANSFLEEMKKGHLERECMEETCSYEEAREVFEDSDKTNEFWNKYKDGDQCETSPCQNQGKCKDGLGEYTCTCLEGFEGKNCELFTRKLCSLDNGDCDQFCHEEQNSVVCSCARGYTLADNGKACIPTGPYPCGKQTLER
Experimental: as §1, §2, §3
Factor Xa catalytic activity was determined using the chromogenic substrate S-2765 (N-benzyloxycarbonyl-D-arginine-L-glycine-L-arginine-p-nitroaniline), obtained from DiaPharma Group (Franklin, Ohio). All substrates were reconstituted in deionized water prior to use. […] Purified human Factor X was obtained from Enzyme Research Laboratories, Inc. (South Bend, Ind.) and Factor Xa (FXa) was activated and prepared from it as described [Bock, P. E., Craig, P. A., Olson, S. T., and Singh, P. Arch. Biochem. Biophys. 273:375-388 (1989)]. The enzyme was diluted into HBSA prior to assay in which the final concentration was 0.25 nM.

human plasmin = target: T4, human plasmin (Homo sapiens, UniProt P00747); assay: Plasmin chromogenic enzyme assay
T4 construct: Purified human plasmin; purchased Enzyme Research Laboratories, Inc
T4 sequence (P00747 581-810 limits assumed): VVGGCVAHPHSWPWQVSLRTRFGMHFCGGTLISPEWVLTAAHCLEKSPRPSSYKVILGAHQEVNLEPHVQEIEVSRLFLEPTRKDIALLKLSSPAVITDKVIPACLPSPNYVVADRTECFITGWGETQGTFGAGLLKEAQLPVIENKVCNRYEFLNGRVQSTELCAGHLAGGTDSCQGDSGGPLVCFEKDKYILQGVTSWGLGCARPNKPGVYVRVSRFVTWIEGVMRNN
T4 sequence (P00747 97-580 partner limits assumed): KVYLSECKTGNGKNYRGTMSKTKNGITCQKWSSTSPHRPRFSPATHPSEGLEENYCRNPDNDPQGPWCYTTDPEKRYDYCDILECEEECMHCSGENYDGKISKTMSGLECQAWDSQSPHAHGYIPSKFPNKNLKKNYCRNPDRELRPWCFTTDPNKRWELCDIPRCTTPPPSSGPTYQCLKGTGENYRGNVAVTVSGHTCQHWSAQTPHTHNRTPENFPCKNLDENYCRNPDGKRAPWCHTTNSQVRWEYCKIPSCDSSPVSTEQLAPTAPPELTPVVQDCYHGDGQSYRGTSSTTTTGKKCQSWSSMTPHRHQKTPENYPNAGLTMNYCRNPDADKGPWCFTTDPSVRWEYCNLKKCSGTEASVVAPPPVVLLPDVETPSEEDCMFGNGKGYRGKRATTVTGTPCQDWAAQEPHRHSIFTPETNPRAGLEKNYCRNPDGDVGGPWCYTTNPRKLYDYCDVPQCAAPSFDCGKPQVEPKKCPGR
Experimental: as §1, §2, §3
Plasmin catalytic activity was determined using the chromogenic substrate, S-2366 [L-pyroglutamyl-L-prolyl-L-arginine-p-nitroaniline hydrochloride], which was obtained from DiaPharma group. The substrate was made up in deionized water followed by dilution in HBSA prior to the assay in which the final concentration was 300 micromolar (about 2:.5-times Km). Purified human plasmin was obtained from Enzyme Research Laboratories, Inc. The enzyme was diluted into HBSA prior to assay in which the final concentration was 1.0 nM.

| IC50 [1] [nM] | Ki (human α-thrombin) [nM] | IC50 (human α-thrombin) [nM] | IC50 (Factor Xa) [nM] | IC50 (human plasmin) [nM] | Structure (SMILES) |
| --- | --- | --- | --- | --- | --- |
| ≥ 2500 | ≥ 2500 | ≥ 2500 | ≥ 2500 | ≥ 2500 | N/C(=N\O)c1ccc(CNC(=O)[C@@H]2Cc3cccc4c3N2C(=O)[C@@H](NS(=O)(=O)c2ccc3c(c2)CCO3)CC4)cc1 [Example 60, N-(2,3-Dihydrobenzo[b]furanyl-5-sulfonyl)-Haic-aminomethylphenyl-N-hydroxyamidine] |
| ≤ 100 | ≤ 100 | ≤ 100 | 300 to 2500 | ≥ 2500 | N=C(N)c1ccc(CNC(=O)[C@@H]2Cc3cccc4c3N2C(=O)[C@@H](NS(=O)(=O)c2ccc3c(c2)CCO3)CC4)cc1 [Example 61, N-(2,3-Dihydrobenzo[b]furanyl-5-sulfonyl)-Haic-aminomethylphenylamidine] |
| ≥ 2500 | 100 to 300 | 300 to 2500 | ≥ 2500 | ≥ 2500 | N[C@H]1CC[C@H](CNC(=O)CN2CCCC[C@H](NS(=O)(=O)Cc3ccccc3)C2=O)CC1 [Example 65] |
| ≥ 2500 | ≤ 100 | 300 to 2500 | ≥ 2500 | ≥ 2500 | Cc1nc(N)ccc1CNC(=O)CN1CCCC[C@H](NS(=O)(=O)Cc2ccccc2)C1=O [Example 66] |
| 300 to 2500 | ≤ 100 | 100 to 300 | 300 to 2500 | ≥ 2500 | N=C(N)c1ccc(CNC(=O)CN2CCCC[C@H](NS(=O)(=O)Cc3ccccc3)C2=O)cc1 [Example 67] |
